Consider four molecules from patent US4290952A, “Aryl-1-mercaptoalkanoylproline and homoproline derivatives” (American Home Products Corporation, priority 1980, dated 1981).

The target in assay [1] is T1, angiotensin converting enzyme (Oryctolagus cuniculus, UniProt P12822).
T1 construct: A crude angiotensin converting enzyme supernatant is obtained by blending 1 gm. of rabbit lung acetone powder; tissue Pel-Freez Biologicals; host or cells: rabbit lung (acetone powder; crude 40,000 xg supernatant)
T1 sequence (P12822 34-1310): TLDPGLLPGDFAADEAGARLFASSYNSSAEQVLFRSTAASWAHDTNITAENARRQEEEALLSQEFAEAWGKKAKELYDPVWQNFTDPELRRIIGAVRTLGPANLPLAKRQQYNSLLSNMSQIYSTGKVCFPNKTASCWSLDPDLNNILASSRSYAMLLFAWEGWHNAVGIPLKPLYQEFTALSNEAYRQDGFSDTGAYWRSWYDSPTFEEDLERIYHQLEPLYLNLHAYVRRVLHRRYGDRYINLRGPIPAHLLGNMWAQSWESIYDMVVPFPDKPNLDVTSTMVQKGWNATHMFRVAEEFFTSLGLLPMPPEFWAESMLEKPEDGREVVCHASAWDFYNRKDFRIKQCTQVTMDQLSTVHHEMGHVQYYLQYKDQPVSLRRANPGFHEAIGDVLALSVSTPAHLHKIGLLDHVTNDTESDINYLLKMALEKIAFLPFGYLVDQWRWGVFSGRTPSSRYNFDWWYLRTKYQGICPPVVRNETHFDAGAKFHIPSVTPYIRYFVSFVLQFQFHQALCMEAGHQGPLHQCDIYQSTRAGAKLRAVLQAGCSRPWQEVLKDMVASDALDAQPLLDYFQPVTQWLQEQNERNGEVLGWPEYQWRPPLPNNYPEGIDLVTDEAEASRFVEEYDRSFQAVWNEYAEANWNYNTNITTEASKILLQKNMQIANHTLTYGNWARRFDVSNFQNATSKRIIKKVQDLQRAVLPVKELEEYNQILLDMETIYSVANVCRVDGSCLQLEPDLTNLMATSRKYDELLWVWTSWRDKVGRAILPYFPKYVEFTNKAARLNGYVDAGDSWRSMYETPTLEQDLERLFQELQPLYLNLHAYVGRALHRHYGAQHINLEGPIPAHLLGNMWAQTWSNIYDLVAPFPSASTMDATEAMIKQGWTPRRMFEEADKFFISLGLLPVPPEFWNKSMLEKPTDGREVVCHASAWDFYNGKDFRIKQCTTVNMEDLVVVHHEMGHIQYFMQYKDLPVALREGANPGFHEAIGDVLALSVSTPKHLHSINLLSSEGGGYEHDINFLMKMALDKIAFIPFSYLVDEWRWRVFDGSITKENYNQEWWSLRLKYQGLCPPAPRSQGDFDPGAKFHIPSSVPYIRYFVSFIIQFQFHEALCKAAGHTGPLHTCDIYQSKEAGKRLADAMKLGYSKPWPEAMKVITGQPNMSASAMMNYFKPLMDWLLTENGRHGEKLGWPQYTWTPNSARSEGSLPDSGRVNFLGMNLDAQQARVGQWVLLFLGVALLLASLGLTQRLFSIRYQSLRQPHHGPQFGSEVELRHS
The assay can be described thus: Inhibition of hippuryl-L-histidyl-L-leucine hydrolysis by angiotensin converting enzyme, in vitro. Type of assay: biochemical, rabbit. The method, then:
The activity of the compounds of this invention was established by incubation of hippuryl-L-histidyl-L-leucine at 37° C. with angiotensin converting enzyme by the following procedure:
A crude angiotensin converting enzyme supernatant is obtained by blending 1 gm. of rabbit lung acetone powder (Pel-Freez Biologicals) with 35 ml of 50 mM (buffered) potassium phosphate, pH 8.3 and centrifuging for 45 min. at 40,000 xg.
The specific angiotensin converting enzyme substrate Hippuryl-L-histidyl-L-leucine (HHL--Sigma Chem. Co.) is prepared at 5 mM in 200 mM potassium phosphate buffer containing 757 mM NaCl at pH 8.3.
Incubation for the assay of HHL hydrolysis by angiotensin converting enzyme is carried out in a 37° C. gyrorotary incubator in disposable 13×100 mm tubes. Each 0.25 ml assay mixture contains the following components at the final concentrations: potassium phosphate buffer, 100 mM; NaCl, 300 mM; HHL, 5 mM; and enzyme 0.15 ml (10 mU approx.) added last to initiate the reaction. Zero time controls have 0.25 ml of 2 N HCl added before the enzyme. The timed reactions are terminated with acid at 30 min. similarly and the hippuric acid freed from substrate is extracted into 1.5 ml of ethylacetate by vortex mixing for 15 sec. After 5 min. centrifugation in a clinical centrifuge, a 1.0 ml aliquot of the ethyl acetate layer is transferred to a clean tube. These aliquots are evaporated to dryness by heating (120° C.) in a Temp-Block module heater.
The hippuric acid is resuspended in 1.0 ml of water, the absorbance at 228 nm is determined, and the amount present is calculated from a standard curve. The amount of hippuric acid×1.1 (extraction coefficient)×1.5 (ratio of volumes)×1 μM hippuric acid/[…]×1/30 min.=nM hippuric acid released/min. Enzyme activity in the presence of an inhibitor is compared with control activity, and reported as a percentage inhibition. (Cushman, D. W. and Cheung, H. S., Biochem. Pharmacol. 20 1637 (1971).

The test system of assay [2] is male spontaneously hypertensive rats. The experiment in a line: Blood pressure lowering in spontaneously hypertensive rats (systolic pressure, caudal plethysmograph). It is filed as in vivo, rat. The method, then: In addition, the blood pressure lowering ability of the compounds of this invention was established by measuring the systolic pressure of male spontaneously hypertensive rats with a Decker Caudal Plethysmograph. The compounds tested were administered orally and blood pressure was read prior to and at 1.5, 4 and 24 hours after drug administration.

Assay [3] has as its system angiotensin converting enzyme. The experiment in a line: In vivo inhibition of angiotensin converting enzyme: blood pressure responses to i.v. angiotensin I in conscious normotensive rat after oral dosing. Particulars: 10 mg/kg, 10 minutes post dosing, mean two animals. The method, then: The in vitro experiments were confirmed following the procedure of Rubin et al, J. Pharmacol. Exp. Ther 204 721 (1978) whereby jugular vein and carotid artery cannulae are placed in an ether anesthetized, normotensive,male, Spraque-Dawley rat for injection of compounds and direct recording of systemic arterial pressure, respectively. The blood pressure responses in the conscious animal to i.v. injections of angiotensin I (300 ng/kg), angiotensin II (100 ng/kg) and bradykinin (10 μg/kg) are recorded and compared with identical doses administered at various time intervals after oral dosing of the angiotensin converting enzyme inhibitor of this invention.

By inhibition is commonly meant the drop in the measured response relative to a control, in per cent. `CC(CSC(=O)c1ccccc1)C(=O)N1[C@@H](c2ccccc2)CC[C@H]1C(=O)O` (single isomer, unassigned) [β-acid of Example 7, 5-Phenyl-1-(3-benzoylthio-2-methyl-1-oxopropyl)proline]: in assay [1] (1 ng/ml), the inhibition at 0.001 µg/mL was found to be 20%. Also, the inhibition at 0.01 µg/mL in assay [1] (10 ng/ml) was 40%. For the same molecule, the inhibition at 0.05 µg/mL in assay [1] (50 ng/ml) was 75%. The “inhibition of angiotensin converting enzyme in vitro” value is listed as 84% in assay [1] (100 ng/ml) and 99% in assay [1] (1000 ng/ml). The “reduction of blood pressure in the rat” value in assay [2] (10 mg/kg, oral) was found to be 37 mmHg.

For orientation: inhibition in vivo means the drop in the measured response relative to a control, in per cent. Regarding `O=C(O)[C@@H]1CC[C@H](c2ccccc2)N1C(=O)CCS` (relative stereo) [Example four, cis-1-(3-Mercaptopropanoyl)-5-phenyl proline], the inhibition at 0.1 µg/mL in assay [1] (100 ng/ml) turned out to be 72%. In addition, in assay [3], the inhibition in vivo came out at 65%. Besides, the “reduction of systolic blood pressure in spontaneously hypertensive rats” value in assay [2] (50 mg/kg oral dose, four hours after administration) amounted to 21 millimeters.

As for `CC(CSC(=O)c1ccccc1)C(=O)N1[C@@H](c2ccccc2)CC[C@H]1C(=O)O` (single isomer, unassigned) [α-acid of Example 7, 5-Phenyl-1-(3-benzoylthio-2-methyl-1-oxopropyl)proline], the “inhibition of angiotensin converting enzyme in vitro” value is 3% in assay [1] (100 ng/ml) and 17% in assay [1] (1000 ng/ml).

As for `COc1ccc([C@H]2CC[C@@H](C(=O)O)N2C(=O)CCS)cc1OC` (relative stereo) [Example two, cis-1-(3-Mercaptopropanoyl)-5-(3,4-Dimethoxyphenyl)proline], the inhibition at 0.1 µg/mL in assay [1] (100 ng/ml) was found to be 40%. In assay [3], this molecule had an inhibition in vivo of 72%. Moreover, in assay [2] (50 mg/kg orally administered), the “reduction of systolic blood pressure in spontaneously hypertensive rats” value is listed as 23 mmHg.
